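Dose response: 5 concentrations. Exposure: 48 h. Format: 96-well plates. Endpoint: linear interpolation; highest concentration if not reached. TGI is the concentration that stops growth completely.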
Tests used:
Assay in all cases: growth of human tumour cells (NCI), 48 h
[1] = tested on: SN12C renal
[2] = tested on: ACHN renal
[3] = tested on: CCRF-CEM leukemia
[4] = tested on: SF-295 CNS
[5] = tested on: SNB-75 CNS
[6] = tested on: OVCAR-8 ovarian
[7] = tested on: SK-MEL-28 melanoma
[8] = tested on: K-562 leukemia
[9] = tested on: U251 CNS
[10] = tested on: HT29 colon
[11] = tested on: A549 NSCLC
[12] = tested on: UACC-62 melanoma
[13] = tested on: NCI-H23 lung
[14] = tested on: SK-MEL-5 melanoma
[15] = tested on: SF-539 CNS
[16] = tested on: SR leukemia
[17] = tested on: OVCAR-4 ovarian
[18] = tested on: MDA-MB-231 breast
[19] = tested on: HS 578T breast

| Compound | TGI [1] | TGI [2] | TGI [3] | TGI [4] | TGI [5] | TGI [6] | TGI [7] | TGI [8] | TGI [9] | TGI [10] | TGI [11] | TGI [12] | TGI [13] | TGI [14] | TGI [15] | TGI [16] | TGI [17] | TGI [18] | TGI [19] |
| --- | --- | --- | --- | --- | --- | --- | --- | --- | --- | --- | --- | --- | --- | --- | --- | --- | --- | --- | --- |
| COc1c(C)cc2c(c1O)C1NC(C2)[C@H](O)N2C3COC(=O)[C@@]4(CS[C@@H](c5c(OC(C)=O)c(C)c6c(c53)OCO6)C12)NCCC1=C4NC2C=CC=CC12 (stereo not given in full) | 0.0365 µM | 0.0148 µM | < 0.01 µM | < 0.01 µM | < 0.01 µM | < 0.01 µM | < 0.01 µM | 0.0202 µM | < 0.01 µM | 0.107 µM | < 0.01 µM | < 0.01 µM | < 0.01 µM | < 0.01 µM |  |  |  |  |  |
| Brc1cc2c(cc1C1SCCS1)OCO2 |  | > 100 µM | > 100 µM | > 100 µM | > 100 µM | > 100 µM | > 100 µM | > 100 µM | > 100 µM | > 100 µM | > 100 µM | > 100 µM | > 100 µM | > 100 µM | > 100 µM | > 100 µM | > 100 µM |  |  |
| NCCC(=O)N[C@@H](Cc1cc(O)c(O)c(SCC(NC(=O)CC[C@H](N)C(=O)O)C(=O)NCC(=O)O)c1)C(=O)O (stereo not given in full) | > 50 µM | > 50 µM |  | > 50 µM | > 50 µM |  | > 50 µM | > 50 µM | > 50 µM | > 50 µM | > 50 µM | > 50 µM | > 50 µM |  |  |  | > 50 µM | > 50 µM |  |
| CC(C)N1CN(C(C(=O)N[C@@H]2C(=O)N3C2SC(C)(C)C3C(=O)O)c2ccc(O)cc2)CSC1=S (stereo not given in full) | > 100 µM | > 100 µM | > 100 µM | > 100 µM | > 100 µM | > 100 µM | > 100 µM | > 100 µM | > 100 µM | > 100 µM |  | > 100 µM | > 100 µM | > 100 µM | > 100 µM |  | > 100 µM |  |  |
| COc1cc(/C=C\c2cccnc2)cc(OC)c1OC | > 100 µM | > 100 µM | > 100 µM | > 100 µM | > 100 µM | > 100 µM | > 100 µM | > 100 µM | > 100 µM | > 100 µM | > 100 µM | > 100 µM | > 100 µM | 40.8 µM | > 100 µM |  | > 100 µM |  |  |
| CCOP(=O)(OCC)C(C(=O)OC)C(=O)C(=O)Nc1c(C)cc(Br)cc1C (stereo not given) | > 100 µM | > 100 µM | > 100 µM |  | > 100 µM | > 100 µM | > 100 µM | > 100 µM | > 100 µM | > 100 µM | > 100 µM | > 100 µM | > 100 µM | > 100 µM | > 100 µM |  | > 100 µM |  |  |
| COc1ccc(C=C(c2ccc(OCc3ccccc3)cc2)c2ccc(OCc3ccccc3)cc2)cc1 | > 100 µM | > 100 µM |  | > 100 µM | > 100 µM | > 100 µM | > 100 µM |  | > 100 µM | > 100 µM | > 100 µM | > 100 µM | > 100 µM | > 100 µM | > 100 µM | > 100 µM | > 100 µM |  |  |
| O=C1C2CN(Cc3ccccc3)CC1CN(CC1CC1)C2 | > 100 µM | > 100 µM | > 100 µM | > 100 µM | > 100 µM | > 100 µM | > 100 µM | > 100 µM | > 100 µM | > 100 µM | > 100 µM | > 100 µM | > 100 µM | > 100 µM | > 100 µM |  | > 100 µM |  |  |
| CCCCCCCC(=O)OCC1OC(OC)C(NC(=O)N(CCCl)N=O)C(O)C1O (stereo not given) | 26.6 µM | > 100 µM | 40.5 µM | 33 µM | 53.3 µM | 57.2 µM | > 100 µM | > 58 µM | > 70.1 µM | 50.3 µM | > 72.3 µM | 14 µM | 29.4 µM | 35.8 µM | 16.5 µM | 23.9 µM | > 100 µM |  |  |
| O[C@@H]1C[C@H]2N3CC[C@@]2(c2cc4c(cc2C3)OCO4)[C@H]2O[C@@H]12 | > 100 µM | > 100 µM | > 100 µM | > 100 µM | > 100 µM | > 100 µM | > 100 µM | > 100 µM | > 100 µM | > 100 µM | > 100 µM | > 100 µM | > 100 µM |  | 0.041 µM |  | > 100 µM | > 100 µM | > 100 µM |
| COc1ccc2[nH]cc(CCNC(=O)[C@](O)(Cc3cn(C)c4ccccc34)[C@@]3(O)OCC(O)C3O)c2c1 (stereo not given in full) | > 100 µM | > 100 µM | > 100 µM | > 100 µM | > 100 µM | > 100 µM | > 100 µM | > 100 µM | > 100 µM | > 100 µM | > 100 µM | > 100 µM | > 100 µM | > 100 µM | > 100 µM | > 100 µM | > 100 µM |  |  |
| NC(N)=NS(=O)(=O)c1ccc(Nc2c3ccccc3nc3c(C(=O)Nc4ccc(S(N)(=O)=O)cc4)ccc(Cl)c23)cc1 | > 100 µM | > 100 µM |  | > 100 µM | > 100 µM | > 100 µM | > 100 µM | > 100 µM | > 100 µM | > 100 µM | > 100 µM | > 100 µM | > 100 µM | > 100 µM | > 100 µM | > 100 µM | > 100 µM |  |  |
| COc1ccccc1/C=C1\CCC(CCN2CCOCC2)C1=O (stereo not given) | > 100 µM | > 100 µM | > 100 µM | > 100 µM | > 100 µM | > 100 µM | > 100 µM | > 100 µM |  | > 100 µM | > 100 µM | > 100 µM | > 100 µM | > 100 µM | > 100 µM | > 100 µM | > 100 µM |  |  |
| COC(=O)CSC(=S)Nc1nnc(NC(=S)SCOC(C)=O)n1C(=S)SCC(=O)OC | > 100 µM | > 100 µM | > 100 µM | > 100 µM |  |  | > 100 µM | > 100 µM | > 100 µM | > 100 µM |  | > 100 µM | > 100 µM | > 100 µM |  | > 100 µM | > 100 µM |  | > 100 µM |
| COc1cc(/C=C2\C(=O)N(C(=O)c3ccc(NC(C)=O)cc3)N=C2C)ccc1O | > 100 µM | > 100 µM | > 100 µM | > 100 µM | > 100 µM | > 100 µM | > 100 µM | > 100 µM |  | > 100 µM | > 100 µM |  | > 100 µM | > 100 µM | > 100 µM | > 100 µM | > 100 µM |  |  |
| CC(=O)c1cccc(NC(=O)C(=O)Nn2c(N)nnc2N)c1 | > 100 µM | > 100 µM | > 100 µM | > 100 µM | > 100 µM | > 100 µM | > 100 µM | > 100 µM | > 100 µM | > 100 µM | > 100 µM | > 100 µM | > 100 µM | > 100 µM | > 100 µM | > 100 µM | > 100 µM |  |  |
| O=c1[nH]cnc2c1CCCN2 | > 100 µM | > 100 µM | > 100 µM | > 100 µM | > 100 µM | > 100 µM | > 100 µM | > 100 µM | > 100 µM | > 100 µM | > 100 µM | > 100 µM | > 100 µM | > 100 µM |  | > 100 µM |  |  |  |
| Clc1cc(Br)c2c3c(c(Br)cc(Cl)c13)C(Br)=C2Br | 44.7 µM | 36.3 µM |  | > 100 µM | 71.7 µM | 93 µM | > 100 µM | > 100 µM | > 100 µM | 61.5 µM | > 100 µM | 79.7 µM |  |  | 35.7 µM | 58.1 µM | > 100 µM | 82 µM | > 100 µM |
| CC(C)SC(NC(=O)C1C(C)(C)CCC1(C)C)C(=O)O (stereo not given) | > 100 µM | > 100 µM | > 100 µM |  | > 100 µM | > 100 µM | > 100 µM | > 100 µM | > 100 µM |  | > 100 µM | > 100 µM | > 100 µM | > 100 µM | > 100 µM |  |  | > 100 µM | > 100 µM |
| CN1Cc2cc3c(cc2-c2ccccc21)OCO3 | > 100 µM | > 100 µM | > 100 µM | > 100 µM | > 100 µM | > 100 µM | > 100 µM | > 100 µM | > 100 µM | > 100 µM | > 100 µM | > 100 µM | > 100 µM | > 100 µM | > 100 µM | > 100 µM | > 100 µM |  |  |
| CC(C)(C)OC(=O)C1CC[C@@H](CC(=O)Oc2ccc([N+](=O)[O-])cc2)N1 (stereo not given in full) | > 100 µM | > 100 µM | > 100 µM | > 100 µM | > 100 µM | > 100 µM | > 100 µM |  | > 100 µM |  | > 100 µM | > 100 µM | > 100 µM | > 100 µM | > 100 µM | > 100 µM | > 100 µM | > 100 µM |  |
| Cc1nn(C)cc1P(=S)(c1ccccc1)c1ccccc1 | > 100 µM | > 100 µM | > 100 µM | > 100 µM | 85.1 µM | > 100 µM | > 100 µM | > 100 µM | > 100 µM | > 100 µM | > 100 µM | > 100 µM | > 100 µM | > 100 µM | > 100 µM | > 100 µM | > 100 µM |  |  |

From PubChem BioAssay (NCI)
